Measured values reported in patent publication US20250270173A1, “PYRIDINE DERIVATIVES FOR TREATING PSYCHIATRIC DISORDERS” (GILGAMESH PHARMACEUTICALS, INC., priority 2022, published 2025).
Read-outs that look alike come from different tables or passages of the source.

Tests used:
5-HT2A receptor [1] = biological target: T1, 5-HT2A receptor (Homo sapiens (Human), UniProt P28223); experiment: FLIPR Ca2+ flux functional assay at 5-HT2A (HEK293); conditions: for 5-HT2A % Act @ Max Conc.: HEK293, at max concentration
5-HT2B receptor = 5-HT2B receptor (Homo sapiens (Human), UniProt P41595); experiment: FLIPR Ca2+ flux functional assay at 5-HT2B (HEK293); conditions: for 5-HT2B % Act @ Max Conc.: HEK293, at max concentration
Chain of 5-HT2B receptor (P41595 whole entry, looked up): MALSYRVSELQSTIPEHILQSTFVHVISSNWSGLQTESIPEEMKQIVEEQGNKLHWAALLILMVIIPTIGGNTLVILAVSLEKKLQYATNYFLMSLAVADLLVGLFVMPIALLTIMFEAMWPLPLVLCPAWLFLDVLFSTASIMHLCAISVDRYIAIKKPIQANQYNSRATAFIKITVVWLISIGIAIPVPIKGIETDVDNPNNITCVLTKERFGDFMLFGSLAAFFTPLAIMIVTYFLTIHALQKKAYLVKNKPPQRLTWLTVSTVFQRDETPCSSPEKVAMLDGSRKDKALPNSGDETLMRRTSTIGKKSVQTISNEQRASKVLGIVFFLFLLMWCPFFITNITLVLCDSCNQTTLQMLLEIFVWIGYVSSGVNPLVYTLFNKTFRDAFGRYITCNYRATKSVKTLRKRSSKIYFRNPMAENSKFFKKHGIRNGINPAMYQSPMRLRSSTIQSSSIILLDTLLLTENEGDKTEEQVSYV

5-HT1A receptor = 5-HT1A receptor (Homo sapiens (Human), UniProt P08908); experiment: FLIPR Ca2+ flux functional assay at 5-HT1A (CHO cells); conditions: for 5-HT1A % Act @ Max Conc.: at max concentration
5-HT2A receptor [2] = biological target: T1, 5-HT2A receptor; experiment: 5-HT2A receptor radioligand binding with [3H]ketanserin
human 5-HT2C receptor = human 5-HT2C receptor (Homo sapiens (Human), UniProt P28335); experiment: FLIPR Ca2+ flux functional assay at 5-HT2C (Eurofins DiscoverX); type: cell-based; conditions: Ca2+ flux, human 5-HT2C; for 5-HT2C % Act @ Max Conc.: at max concentration; for EC50: read-out: 5-HT2C EC50
Chain of human 5-HT2C receptor (P28335 whole entry, looked up): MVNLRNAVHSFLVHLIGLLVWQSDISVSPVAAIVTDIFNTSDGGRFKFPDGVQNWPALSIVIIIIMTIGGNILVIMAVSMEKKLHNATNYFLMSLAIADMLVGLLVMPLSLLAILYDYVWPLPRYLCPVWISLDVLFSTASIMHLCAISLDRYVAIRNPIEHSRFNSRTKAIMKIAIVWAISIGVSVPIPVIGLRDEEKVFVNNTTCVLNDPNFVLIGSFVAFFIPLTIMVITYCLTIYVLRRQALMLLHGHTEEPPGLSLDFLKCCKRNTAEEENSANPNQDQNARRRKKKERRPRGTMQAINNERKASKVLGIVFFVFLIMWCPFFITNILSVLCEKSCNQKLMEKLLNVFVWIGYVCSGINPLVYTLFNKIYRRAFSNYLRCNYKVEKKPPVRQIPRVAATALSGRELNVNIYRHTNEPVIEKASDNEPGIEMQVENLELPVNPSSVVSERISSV
Procedure: Functional Assays at 5-HT2C Receptors. […] Probenecid was prepared fresh. Cells were loaded with dye prior to testing and incubated at 37° C. for 30-60 minutes. After dye loading, cells were removed from the incubator and 10 μL HBSS/20 mM Hepes was added. 3× vehicle was included in the assay buffer. Cells were incubated for 30 mins at room temperature in the dark to equilibrate plate temperature. Intermediate dilution of sample stocks was performed to generate 4× sample in assay buffer. Compound agonist activity was measured on a FLIPR Tetra (MDS). Calcium mobilization was monitored for 2 minutes and 10 μL 4× sample in HBSS/20 mM Hepes was added to the cells 5 seconds into the assay.

C57BL/6 mice = experiment: Automated (video tracking) head twitch response (HTR) assay in mice; type: in vivo; conditions: SC; for Most Efficacious Dose; mg/kg: dose giving the most HTR; for ED50: Mus musculus, 20 min, 20 min recording, read-out: ED50
Procedure: Disclosed compounds were tested for their ability to induce a head twitch response (HTR) in mice using an automated video tracking procedure, with the results summarized in Table 5. […] The phenyl Compound 44 was substantially more efficacious at inducing HTR than its pyridine counterpart Compound 29, in agreement with the generally lower maximal efficacy of the disclosed pyridine compounds for signaling through 5-HT2A receptors.
Animals. Adult male C57BL/6 mice aged 8-10 weeks (body weight 20-25 g) were used in these experiments. Animals were housed under controlled temperatures and 12-hour light/dark cycles (lights on between 07:00-19:00 h), with ad libitum food and water. The protocol was approved by the Institutional Animal Care and Use Committee at the study site. This study was carried out in strict accordance with the recommendations in the Guide for the Care and Use of Laboratory Animals of the National Institutes of Health. All efforts were made to minimize suffering.
Drugs and Drug Administration. […] was commercially obtained. Disclosed compounds were synthesized as described above. They were administered subcutaneously (SC) dissolved in saline (or saline acidified with 1-2 molar equivalents HCl to form the salt in situ for freebase compounds) at a volume of 10 mL/kg. Five doses were tested, with N=5-8 animals/group. Doses were calculated on the basis of the freebase, except for DOI, which was calculated based on the HCl salt.
Procedure. Mice were administered one dose of the drug and immediately placed into a small open field for behavioral observation. High-speed video of animals' behavior was captured continuously for 20 min. Video recordings were imported into an image processing software, which detects multiple points of interest on each animal's body, including the left and right ear. HTR events were defined as periodic deviations of ear locations from temporally averaged ear locations. Predefined thresholds for magnitude and frequency of location deviations were used to filter […] events from random head movements. The method was validated by comparing detected events with manual (human) observations and found to have an accuracy >95%. The total number of HTR events counted during the 20-min recording were determined for each animal at each dose.
Statistical Analysis. Analysis was performed using GraphPad Prism 9. Dose-response curves were fit via non-linear regression using the Gaussian 2020 function in Prism in order to determine the ED50 and Emax for each compound.

[3] = read-out: Ki at 5-HT2A Receptor (nM) ([3H]ketanserin), HEK293 stable cell line, 1 nM [3H]ketanserin, 1 h, 25 °C
[4] = read-out: 5-HT2A EC50, Ca2+ flux, HEK293
[5] = read-out: 5-HT2B EC50, Ca2+ flux, HEK293
[6] = read-out: 5-HT1A EC50, Ca2+ flux, CHO cells

Structure (SMILES) | EC50 (5-HT2A receptor [1]) [µM] | 5-HT2A % Act @ Max Conc. (5-HT2A receptor [1]; Ca2+ flux) [%] | EC50 (5-HT2B receptor) [µM] | 5-HT2B % Act @ Max Conc. (5-HT2B receptor; Ca2+ flux) [%] | EC50 (5-HT1A receptor) [µM] | 5-HT1A % Act @ Max Conc. (5-HT1A receptor; Ca2+ flux, CHO cells) [%] | Ki (5-HT2A receptor [2]) [nM] | Ki (5-HT2A receptor [2]; [3]) [nM] | EC50 (5-HT2A receptor [1]; [4]) [µM] | EC50 (5-HT2B receptor; [5]) [µM] | 5-HT2C % Act @ Max Conc. (human 5-HT2C receptor) [%] | EC50 (human 5-HT2C receptor) [µM] | # HTR/20 min at Most Efficacious Dose (C57BL/6 mice) [HTR/20 min] | Most Efficacious Dose; mg/kg (C57BL/6 mice) | ED50 (C57BL/6 mice) [mg/kg] | Emax (HTR counts/20 min) (C57BL/6 mice) | EC50 (5-HT1A receptor; [6]) [µM]
COc1cc(CCCCC(F)(F)F)c(OC)nc1CCN [Compound 35, 2-(3,6-dimethoxy-5-(5,5,5-trifluoropentyl)pyridin-2-yl)ethan-1-amine] | 0.0385 | 48.95 | 0.341 | 32.44 | > 100 | 41.47 | 13.6 | – | – | – | – | – | – | – | – | – | –
COc1cc(Cl)c(OC)nc1CCN [Compound 16, 2-(5-chloro-3,6-dimethoxypyridin-2-yl)ethan-1-amine] | 0.0201 | 97.33 | 1.4 | 38.95 | > 100 | 5.31 | – | 264 | – | – | – | – | – | – | – | – | –
CCc1cc(OC)c(CCN)cc1OC [Compound 2C-E, 2C-E, reference compound] | – | 105 | – | 66.2 | – | 17.9 | – | 16.7 | 0.000747 | 0.0297 | – | – | – | – | – | – | –
CCc1cc(OC)c(CC(C)N)nc1OC (stereo not drawn) [Compound 20, 1-(5-ethyl-3,6-dimethoxypyridin-2-yl)propan-2-amine] | 0.00579 | 98.11 | 0.293 | 75.75 | > 100 | 0.9 | – | 322 | – | – | – | – | – | – | – | – | –
CCC(N)Cc1nc(OC)c(Cl)cc1OC (stereo not drawn) [Compound 18, 1-(5-chloro-3,6-dimethoxypyridin-2-yl)butan-2-amine] | 0.37 | 70.92 | > 10 | 2.75 | > 100 | 1.33 | – | 1200 | – | – | 36.76 | 2.25 | 33.12 | (10) mg/kg | – | – | –
COc1cc(CCCCCF)c(OC)nc1CCN [Compound 34, 2-(5-(5-fluoropentyl)-3,6-dimethoxypyridin-2-yl)ethan-1-amine] | 0.0135 | 64.66 | > 10 | 7.93 | > 100 | 4.8 | – | 10.2 | – | – | – | – | – | – | – | – | –
CCCc1cc(OC)c(CCN)nc1OC [Compound 36, 2-(3,6-dimethoxy-5-propylpyridin-2-yl)ethan-1-amine] | 0.00414 | 88.19 | 0.184 | 21.53 | > 100 | 3.03 | – | 35.4 | – | – | – | – | 48.12 | (10) mg/kg | 0.972 | 48.79 | –
COc1cc(CCCC(F)(F)F)c(OC)nc1CCN [Compound 33, 2-(3,6-dimethoxy-5-(4,4,4-trifluorobutyl)pyridin-2-yl)ethan-1-amine] | 0.0457 | 68.5 | > 10 | 1.05 | > 100 | 10.46 | – | 104 | – | – | – | – | – | – | – | – | –
COc1cc(Cl)c(OC)nc1CC(C)N (stereo not drawn) [Compound 17, 1-(5-chloro-3,6-dimethoxypyridin-2-yl)propan-2-amine] | 0.00627 | 99.4 | 0.54 | 70.03 | > 100 | 0.79 | – | 404 | – | – | – | – | – | – | – | – | –
CCCCc1cc(OC)c(CCN)nc1OC [Compound 31, 2-(5-butyl-3,6-dimethoxypyridin-2-yl)ethan-1-amine] | 0.00788 | 90.63 | > 10 | 7.29 | > 100 | 21.32 | – | 19.7 | – | – | – | – | 43.38 | (3.2) mg/kg | 1.29 | 43.42 | –
COc1cc(CCNCc2ccccc2OC)c(OC)cc1C [Compound 25D-NBOMe, 25D-NBOMe, reference compound] | – | 97.5 | – | 43.3 | – | −4.43 | – | 2.52 | 0.000251 | 0.00127 | 91.5 | < 0.000508 | – | – | – | – | > 10
COc1cc(CCCCCC(F)(F)F)c(OC)nc1CCN [Compound 30, 2-(3,6-dimethoxy-5-(6,6,6-trifluorohexyl)pyridin-2-yl)ethan-1-amine] | 0.065 | 73.21 | 1.67 | 23.14 | 91.6 | 55.61 | – | 6.01 | – | – | – | – | 17.5 | (3.2) mg/kg | 5.87 | 16.80 | –
COc1cc(CCCCF)c(OC)nc1CCN [Compound 32, 2-(5-(4-fluorobutyl)-3,6-dimethoxypyridin-2-yl)ethan-1-amine] | 0.0208 | 81.86 | > 10 | −0.69 | > 100 | 0.5 | – | 103 | – | – | 99.77 | 0.0228 | – | – | – | – | –
CCc1cc(OC)c(CCN)nc1OC [Compound 19, 2-(5-ethyl-3,6-dimethoxypyridin-2-yl)ethan-1-amine] | 0.0203 | 96.03 | 0.218 | 20.07 | 12 | 1.25 | – | 111 | – | – | – | – | – | – | – | – | –
COc1cc(C2CC2)c(OC)nc1CC(C)N (stereo not drawn) [Compound 27, 1-(5-cyclopropyl-3,6-dimethoxypyridin-2-yl)propan-2-amine] | 0.015 | 104.13 | 0.246 | 61.18 | > 100 | 0.49 | – | 304 | – | – | – | – | – | – | – | – | –
COc1cc(C(F)(F)F)c(OC)cc1CCN [Compound 2C-TFM, 2C-TFM, reference compound] | – | 81.5 | – | 82.0 | – | −0.647 | – | 15.8 | 0.00105 | 0.0163 | 88.2 | 0.000593 | – | – | – | – | > 10
CCCCCCc1cc(OC)c(CC(C)N)nc1OC (stereo not drawn) [Compound 38, 1-(5-hexyl-3,6-dimethoxypyridin-2-yl)propan-2-amine] | 0.0114 | 83.97 | > 10 | 4.76 | 56.9 | 123.88 | – | 3.1 | – | – | 79.49 | 0.159 | – | – | – | – | –
CCCCCc1cc(OC)c(CC(C)N)nc1OC (stereo not drawn) [Compound 4, 1-(3,6-dimethoxy-5-pentylpyridin-2-yl)propan-2-amine] | 0.0154 | 132.71 | > 10 | 14.53 | 48.1 | 67.31 | – | 26.2 | – | – | – | – | – | – | – | – | –
COc1ccccc1CNCCc1nc(OC)c(Br)cc1OC [Compound 25, 2-(5-bromo-3,6-dimethoxypyridin-2-yl)-N-(2-methoxybenzyl)ethan-1-amine] | 0.00159 | 93.57 | > 10 | 8.22 | > 100 | 21.35 | – | 0.35 | – | – | – | – | – | – | – | – | –
